Experiments:
Dog intraocular pressure = Dog intraocular pressure (applanation pneumatonometry) with hyperemia/miosis; type: in vivo; details: for Dog IOP (1 day): 25 μl to the ocular surface, IOP before and at 6 hours after drug; for Hyp: first part of Hyp/Mlosis cell; for Mlosis: second part of Hyp/Mlosis cell
Protocol: The compounds were prepared at the said concentrations in a vehicle comprising 0.1% polysorbate 80 and 10 mM tris (hydroxy methyl) aminomethane hydrochloride (TRIS) base. Dogs were treated by administering 25 μl to the ocular surface, the contralateral eye received vehicle as a control. Intraocular pressure was measured by applanation pneumatonometry. Dog intraocular pressure was measured immediately before drug administration and at 6 hours thereafter.

EP4 = target: T1, EP4 (Oryctolagus cuniculus, UniProt Q28691); experiment: EP4-activity: relaxation of smooth muscle of isolated rabbit jugular vein; type: cell-based; details: nM printed only with EC50 in the table head
T1 construct: smooth muscle of isolated rabbit jugular vein; from tissue; host or cells: isolated rabbit jugular vein smooth muscle
T1 sequence (Q28691 whole entry): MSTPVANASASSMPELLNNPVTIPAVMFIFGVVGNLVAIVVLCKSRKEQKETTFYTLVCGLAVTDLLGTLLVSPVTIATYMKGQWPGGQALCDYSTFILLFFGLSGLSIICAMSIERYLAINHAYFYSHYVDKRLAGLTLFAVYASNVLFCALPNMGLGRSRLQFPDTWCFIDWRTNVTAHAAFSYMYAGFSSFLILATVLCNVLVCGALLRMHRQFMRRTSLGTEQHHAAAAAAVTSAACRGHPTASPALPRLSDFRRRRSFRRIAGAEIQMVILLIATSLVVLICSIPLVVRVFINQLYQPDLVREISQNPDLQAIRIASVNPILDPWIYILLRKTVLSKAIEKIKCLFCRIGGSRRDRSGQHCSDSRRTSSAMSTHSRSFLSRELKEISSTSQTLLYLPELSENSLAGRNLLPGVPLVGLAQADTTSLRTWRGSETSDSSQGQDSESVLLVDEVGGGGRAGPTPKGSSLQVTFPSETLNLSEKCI
Protocol: (§1) Activity at different prostanoid receptors was measured in vitro in isolated smooth muscle preparations. FP-activity was measured as contraction of the isolated feline iris sphincter. EP4-activity was measured as relaxation of smooth muscle of isolated rabbit jugular vein. TP-vasoconstrictor activity was measured as contraction of rings of the isolated rat thoracic aorta. Effects on platelets from healthy human donors were measured by incubating platelet-rich plasma with the compounds described herein. Inhibition of aggregation was determined by the ability of the compounds described herein to inhibit platelet aggregation in platelet-rich plasma induced by 20 μM adenosine diphosphate (ADP).

TP = target: T2, TP (Rattus norvegicus, UniProt P34978); experiment: TP-vasoconstrictor activity: contraction of rings of the isolated rat thoracic aorta; type: cell-based; details: EC50 (nM) printed in the first part of the table head
T2 construct: rings of the isolated rat thoracic aorta; from tissue; host or cells: rings of isolated rat thoracic aorta
T2 sequence (P34978 1-341): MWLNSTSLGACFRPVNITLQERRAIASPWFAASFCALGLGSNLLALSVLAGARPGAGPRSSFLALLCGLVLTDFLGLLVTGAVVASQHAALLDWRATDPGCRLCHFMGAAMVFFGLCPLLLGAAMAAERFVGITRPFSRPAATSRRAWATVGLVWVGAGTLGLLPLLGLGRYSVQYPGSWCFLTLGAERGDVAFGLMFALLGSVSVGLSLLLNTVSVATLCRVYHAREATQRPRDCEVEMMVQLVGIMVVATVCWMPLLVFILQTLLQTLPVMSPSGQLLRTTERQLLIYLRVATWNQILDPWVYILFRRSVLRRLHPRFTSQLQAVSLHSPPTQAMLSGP
Protocol: as §1

Structure (SMILES)	Dog IOP (1 day) (Dog intraocular pressure; 0.1%)	Hyp (Dog intraocular pressure; 0.1%)	Mlosis (Dog intraocular pressure; 0.1%)	IC25 EP4 (EP4) [nM]	Dog IOP (1 day) (Dog intraocular pressure; 0.01%)	Hyp (Dog intraocular pressure; 0.01%)	Mlosis (Dog intraocular pressure; 0.01%)	EC50 (TP) [nM]
Cc1ccc(CCC(O)/C=C/C2C(O)CC(O)[C@@H]2C/C=C\CCCC(N)=O)o1 (some centres unmarked)	0.1%/−2.1	0.75	pinpoint	3760	–	–	–	–
NC(=O)CCC/C=C\C[C@H]1C(O)CC(O)C1/C=C/C(O)CCc1ccco1 (some centres unmarked)	−4.4	1.0	pinpoint	620	−3.2	1.5	pinpoint	–
O=C(O)CCC/C=C\C[C@H]1C(O)CC(O)C1/C=C/C(O)CCc1cc(Br)c(Br)s1 (some centres unmarked)	–	–	–	23	–	–	–	692
COC(/C=C/C1C(O)CC(O)[C@@H]1C/C=C\CCCC(=O)O)CCc1ccco1 (some centres unmarked)	–	–	–	57	–	–	–	–
Cc1ccc(CCC(O)/C=C/C2C(O)CC(O)[C@@H]2C/C=C\CCCC(=O)O)o1 (some centres unmarked)	0.1%/−2.7	1.13	pinpoint	23	–	–	–	> 10000
O=C(O)CCC/C=C\C[C@H]1C(O)CC(O)C1/C=C/C(O)CCc1sc2ccccc2c1Cl (some centres unmarked)	–	–	–	21190	–	–	–	–
Cc1cc(CCC(O)/C=C/C2C(O)CC(O)[C@@H]2C/C=C\CCCC(N)=O)cs1 (some centres unmarked)	0.1%/−3.6	0.6	pinpoint	1630	–	–	–	–
COC(/C=C/C1C(O)CC(O)[C@@H]1C/C=C\CCCC(=O)O)CCc1ccsc1C (some centres unmarked)	–	–	–	100	–	–	–	–
NC(=O)CCC/C=C\C[C@H]1C(O)CC(O)C1/C=C/C(O)CCc1cc(Br)c(Br)s1 (some centres unmarked)	–	–	–	165	–	–	–	–

From US20010029304A1, “Cyclopentane heptan (ENE)OIC acid, 2-heteroarylalkenyl derivatives as therapeutic agents” (ALLERGAN, priority 1996, published 2001)
